# Like-named read-outs stand apart in the source and are kept apart here.
# Tests used:
# human TRPC5 [1] = target: T1, human TRPC5 (Homo sapiens, UniProt Q9UL62); experiment: Whole-cell patch clamp of TRPC5-expressing (Tet+) HEK 293 cells; format: cell-based
# T1 construct: expressed in transfected cells
# T1 sequence (Q9UL62 1-973): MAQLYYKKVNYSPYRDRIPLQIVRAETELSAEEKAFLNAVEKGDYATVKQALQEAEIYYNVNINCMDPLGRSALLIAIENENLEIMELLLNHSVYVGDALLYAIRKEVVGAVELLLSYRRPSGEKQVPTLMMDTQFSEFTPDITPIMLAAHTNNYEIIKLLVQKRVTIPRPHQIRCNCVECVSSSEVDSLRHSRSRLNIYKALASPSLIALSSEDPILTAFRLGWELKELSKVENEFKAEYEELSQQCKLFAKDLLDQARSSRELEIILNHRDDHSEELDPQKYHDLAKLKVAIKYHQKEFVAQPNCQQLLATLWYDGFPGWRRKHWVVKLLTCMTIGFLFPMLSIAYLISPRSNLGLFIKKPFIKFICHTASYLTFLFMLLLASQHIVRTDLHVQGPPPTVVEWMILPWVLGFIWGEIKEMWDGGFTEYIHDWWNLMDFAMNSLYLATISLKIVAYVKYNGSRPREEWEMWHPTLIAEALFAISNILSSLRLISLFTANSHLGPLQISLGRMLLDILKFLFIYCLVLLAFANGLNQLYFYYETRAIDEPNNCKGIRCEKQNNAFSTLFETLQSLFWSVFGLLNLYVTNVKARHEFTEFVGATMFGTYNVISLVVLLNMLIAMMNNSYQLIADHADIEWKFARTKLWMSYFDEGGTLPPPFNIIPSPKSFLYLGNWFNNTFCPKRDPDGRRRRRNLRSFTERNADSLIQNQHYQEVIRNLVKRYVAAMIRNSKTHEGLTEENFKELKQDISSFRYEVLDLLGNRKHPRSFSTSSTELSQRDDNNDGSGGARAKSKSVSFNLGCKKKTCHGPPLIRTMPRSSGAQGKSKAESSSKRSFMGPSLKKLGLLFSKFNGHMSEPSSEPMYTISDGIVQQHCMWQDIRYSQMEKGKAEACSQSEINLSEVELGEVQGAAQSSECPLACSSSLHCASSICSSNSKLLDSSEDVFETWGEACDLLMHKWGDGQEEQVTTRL
# human TRPC5 [2] = target: T1, human TRPC5; experiment: Gd3+-evoked Ca2+ entry in TRPC5-expressing (Tet+) HEK 293 cells; format: cell-based; settings: for IC50: TRPC5 (Tet+) HEK 293, 50 μM Gd3+, fluo-4, 30 min pretreatment, read-out: IC50, inhibition of Gd3+-evoked Ca2+ entry; for effect on Gd3+-evoked Ca2+ entry (natural flavonoid screen): XRhod-1
# human TRPC5 [3] = target: T1, human TRPC5; experiment: Outside-out patch recordings from TRPC5 Tet+ cells; format: cell-based; settings: 10 μM compound, 100 μM Gd3+
# [4] = target: endogenous TRPC5-containing channels (Mus musculus, UniProt Q9QX29); experiment: Ca2+ entry through endogenous channels in differentiated 3T3-L1 cells; format: cell-based; settings: estimated
# Protocol: The 3T3‐L1 cell line was obtained from the American Type Culture Collection and cultured in DMEM‐F12 containing 10% fetal calf serum (FCS), 100 U·mL^−1 penicillin and 100 μg·mL^−1 streptomycin. To induce differentiation, cells were grown to confluence, and 2 days post‐confluence, the medium was changed to a medium containing 5 μg·mL^−1 insulin, 0.25 μM dexamethasone and 0.5 mM IBMX with 10% FCS and antibiotics. After 48 h, medium was changed to a maintenance medium containing 5 μg·mL^−1 insulin, 10% FCS and antibiotics. Cells were fed with fresh maintenance medium every 2 days until the day of experiments. For all experiments, cells were differentiated for 12–16 days.
# Induced (Tet+) and non‐induced (Tet−) cells were plated in poly‐d‐lysine‐coated black 96‐well plates (Corning, Corning, NY, USA) at a confluence of 90% 24 h before experimentation. […] Cells were washed three times with SBS before measurements were made at room temperature (21 ± 2 °C) on a 96‐well fluorescence plate reader (FlexStation II^384, Molecular Devices, Sunnyvale, CA, USA). […] Readings were made every 10 s. Fura‐2 measurements are shown as the fluorescence (F) ratio or change (Δ) in this ratio. Fluo‐4 and XRhod‐1 measurements are shown as absolute fluorescence in arbitrary units or changes in this fluorescence (ΔF). […]
# Cav1.2 channels = test system: Cav1.2 channels; parameters: method as in Saponara et al., 2011; settings: smooth muscle; ref Saponara et al., 2011; cited from earlier work
# 3T3-L1 cells = settings: cited from earlier work
# BKCa channels = test system: BKCa channels; parameters: method as in Cogolludo et al., 2007; Xu et al., 2008b; settings: ref Cogolludo et al., 2007; Xu et al., 2008b; cited from earlier work
# [5] = test system: GABA-evoked ionic currents; parameters: method as in Goutman et al., 2003; settings: ref Goutman et al., 2003; cited from earlier work
# Chain of endogenous TRPC5-containing channels (Q9QX29 whole entry): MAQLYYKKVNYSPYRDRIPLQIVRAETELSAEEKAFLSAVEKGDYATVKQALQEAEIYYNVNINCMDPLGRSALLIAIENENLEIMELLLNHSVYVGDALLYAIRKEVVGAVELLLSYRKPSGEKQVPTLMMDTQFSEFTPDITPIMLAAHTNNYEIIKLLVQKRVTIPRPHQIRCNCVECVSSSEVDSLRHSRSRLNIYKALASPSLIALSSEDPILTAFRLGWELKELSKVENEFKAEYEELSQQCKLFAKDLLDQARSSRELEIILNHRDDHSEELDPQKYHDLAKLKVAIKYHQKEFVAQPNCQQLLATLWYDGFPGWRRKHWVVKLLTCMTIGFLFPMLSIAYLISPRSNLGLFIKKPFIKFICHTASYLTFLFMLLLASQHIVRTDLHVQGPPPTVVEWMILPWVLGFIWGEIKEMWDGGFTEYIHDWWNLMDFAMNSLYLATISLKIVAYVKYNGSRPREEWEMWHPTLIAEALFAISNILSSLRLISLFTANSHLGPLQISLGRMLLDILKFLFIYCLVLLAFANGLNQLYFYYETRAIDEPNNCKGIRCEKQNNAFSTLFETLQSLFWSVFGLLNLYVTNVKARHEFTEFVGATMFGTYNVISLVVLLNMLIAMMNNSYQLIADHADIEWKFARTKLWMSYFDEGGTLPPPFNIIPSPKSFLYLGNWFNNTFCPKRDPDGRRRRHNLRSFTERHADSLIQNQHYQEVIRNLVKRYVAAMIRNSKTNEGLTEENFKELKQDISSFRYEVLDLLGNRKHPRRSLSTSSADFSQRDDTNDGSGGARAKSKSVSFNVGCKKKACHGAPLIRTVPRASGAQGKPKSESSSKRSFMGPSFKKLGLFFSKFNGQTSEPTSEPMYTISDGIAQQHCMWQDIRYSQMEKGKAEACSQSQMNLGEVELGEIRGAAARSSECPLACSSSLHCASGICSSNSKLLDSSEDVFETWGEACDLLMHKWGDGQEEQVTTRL
# Chain of endogenous TRPC5-containing channels (Q61056 whole entry partner): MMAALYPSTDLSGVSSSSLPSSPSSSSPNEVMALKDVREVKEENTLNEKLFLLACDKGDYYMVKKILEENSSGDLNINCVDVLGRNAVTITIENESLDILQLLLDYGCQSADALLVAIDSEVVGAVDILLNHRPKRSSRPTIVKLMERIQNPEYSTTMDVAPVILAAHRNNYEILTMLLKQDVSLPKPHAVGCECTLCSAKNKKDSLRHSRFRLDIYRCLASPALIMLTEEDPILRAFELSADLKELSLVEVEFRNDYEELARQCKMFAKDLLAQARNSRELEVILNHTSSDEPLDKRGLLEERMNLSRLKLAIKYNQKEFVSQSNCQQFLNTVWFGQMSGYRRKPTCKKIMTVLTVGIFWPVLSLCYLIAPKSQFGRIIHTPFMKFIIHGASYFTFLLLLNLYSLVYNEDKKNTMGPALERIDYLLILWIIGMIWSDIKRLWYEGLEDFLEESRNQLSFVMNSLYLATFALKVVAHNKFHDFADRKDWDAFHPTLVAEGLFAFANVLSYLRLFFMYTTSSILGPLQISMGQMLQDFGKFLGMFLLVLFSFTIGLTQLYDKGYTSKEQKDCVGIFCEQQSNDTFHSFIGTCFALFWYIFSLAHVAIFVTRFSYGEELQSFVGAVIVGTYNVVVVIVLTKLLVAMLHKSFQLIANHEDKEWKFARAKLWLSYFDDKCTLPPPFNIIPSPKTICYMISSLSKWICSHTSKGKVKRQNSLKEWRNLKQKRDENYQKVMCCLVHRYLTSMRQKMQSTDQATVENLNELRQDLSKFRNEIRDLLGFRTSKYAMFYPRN
Compound,IC50 (human TRPC5 [2]) [µM],effect on Cav1.2 channels (Cav1.2 channels),"effect on Gd3+-evoked Ca2+ entry (natural flavonoid screen) (human TRPC5 [2]; 10 μM, 50 μM Gd3+)",effect on BKCa channels (BKCa channels),other results
NCCOB(c1ccccc1)c1ccccc1 [2‐aminoethoxydiphenylborate],,,,,"effect on TRPC5 whole-cell current after galangin (human TRPC5 [1]; 75 μM, applied after Gd3+ and galangin): further inhibited the current"
O=c1c(O)c(-c2ccccc2)oc2cc(O)cc(O)c12 [Galangin],0.45,inhibited,,,"effect on Gd3+-evoked Ca2+ signal (natural product screen) (human TRPC5 [2]; 10 μM, 30 min pre-incubation, 50 μM Gd3+, fluo-4): inhibitory; effect on Gd3+-evoked TRPC5-mediated whole-cell current (human TRPC5 [1]; 10 μM compound, 30 μM Gd3+, Ca2+ or Ba2+ in bath): effective; time to effect on whole-cell current (human TRPC5 [1]; 10 μM, 30 μM Gd3+): ≤ 2 min; effect on TRPC5 current stimulated by S1P (human TRPC5 [1]; whole-cell, 10 μM compound, 5 μM S1P): effective; reversibility on washout (human TRPC5 [1]; whole-cell, 10 μM, Gd3+-evoked current): not readily reversed on washout; effect on TRPC5-mediated current in excised outside-out patches (human TRPC5 [3]): inhibited; IC50 ([4]; fluo-4, 20 μM La3+, read-out: IC50 for inhibition of La3+-evoked Ca2+ entry): 6.05 µM; IC50 ([4]; fluo-4, constitutive activity, read-out: IC50 for inhibition of basal Ca2+): 1.85 µM; effect in 3T3-L1 cells / on adipocyte differentiation (3T3-L1 cells; ref Jung et al., 2012): anti‐adipogenic effects"
O=c1c(O)c(-c2ccc(O)c(O)c2)oc2cc(O)cc(O)c12 [Quercetin],6.5,stimulators,inhibitors,stimulated,"effect on GABA-evoked ionic currents [5]: inhibited; effect on 3T3-L1 cell growth and apoptosis (3T3-L1 cells; ref Hsu and Yen, 2006): inhibited"

# Further lines, with some results ahead:
IC50 (human TRPC5 [2]) [µM],Compound,effect on Cav1.2 channels (Cav1.2 channels),"effect on Gd3+-evoked Ca2+ entry (natural flavonoid screen) (human TRPC5 [2]; 10 μM, 50 μM Gd3+)",effect on BKCa channels (BKCa channels),other results
3.9,O=c1c(O)c(-c2ccc(O)cc2)oc2cc(O)cc(O)c12 [Kaempferol],stimulators,inhibitors,stimulated,
> 10,O=c1cc(-c2ccc(O)c(O)c2)oc2cc(O)cc(O)c12 [Luteolin],,,,
> 10,O=c1c(O)c(-c2cc(O)c(O)c(O)c2)oc2cc(O)cc(O)c12 [Myricetin],stimulators,,,

# Reference: paper PMC4728423, “Natural and synthetic flavonoid modulation of TRPC5 channels” (British Journal of Pharmacology, 2016)
